Results on 30 compounds are retold here after patent publication US8778941B2, “TRPM8 antagonists and their use in treatments” (AMGEN Inc., priority 2011, dated 2014).

Structures are written as SMILES.

By IC50 is commonly meant the midpoint of a concentration-inhibition curve.

The target in this assay is T1, human TRPM8 (Homo sapiens, UniProt Q7Z2W7).
T1 construct: expressed in transfected cells; host or cells: Chinese hamster ovary (CHO) cells, T-REx tetracycline-inducible expression system (Invitrogen), co-transfected with pcDNA3.1 jellyfish aequorin
T1 sequence (Q7Z2W7 whole entry): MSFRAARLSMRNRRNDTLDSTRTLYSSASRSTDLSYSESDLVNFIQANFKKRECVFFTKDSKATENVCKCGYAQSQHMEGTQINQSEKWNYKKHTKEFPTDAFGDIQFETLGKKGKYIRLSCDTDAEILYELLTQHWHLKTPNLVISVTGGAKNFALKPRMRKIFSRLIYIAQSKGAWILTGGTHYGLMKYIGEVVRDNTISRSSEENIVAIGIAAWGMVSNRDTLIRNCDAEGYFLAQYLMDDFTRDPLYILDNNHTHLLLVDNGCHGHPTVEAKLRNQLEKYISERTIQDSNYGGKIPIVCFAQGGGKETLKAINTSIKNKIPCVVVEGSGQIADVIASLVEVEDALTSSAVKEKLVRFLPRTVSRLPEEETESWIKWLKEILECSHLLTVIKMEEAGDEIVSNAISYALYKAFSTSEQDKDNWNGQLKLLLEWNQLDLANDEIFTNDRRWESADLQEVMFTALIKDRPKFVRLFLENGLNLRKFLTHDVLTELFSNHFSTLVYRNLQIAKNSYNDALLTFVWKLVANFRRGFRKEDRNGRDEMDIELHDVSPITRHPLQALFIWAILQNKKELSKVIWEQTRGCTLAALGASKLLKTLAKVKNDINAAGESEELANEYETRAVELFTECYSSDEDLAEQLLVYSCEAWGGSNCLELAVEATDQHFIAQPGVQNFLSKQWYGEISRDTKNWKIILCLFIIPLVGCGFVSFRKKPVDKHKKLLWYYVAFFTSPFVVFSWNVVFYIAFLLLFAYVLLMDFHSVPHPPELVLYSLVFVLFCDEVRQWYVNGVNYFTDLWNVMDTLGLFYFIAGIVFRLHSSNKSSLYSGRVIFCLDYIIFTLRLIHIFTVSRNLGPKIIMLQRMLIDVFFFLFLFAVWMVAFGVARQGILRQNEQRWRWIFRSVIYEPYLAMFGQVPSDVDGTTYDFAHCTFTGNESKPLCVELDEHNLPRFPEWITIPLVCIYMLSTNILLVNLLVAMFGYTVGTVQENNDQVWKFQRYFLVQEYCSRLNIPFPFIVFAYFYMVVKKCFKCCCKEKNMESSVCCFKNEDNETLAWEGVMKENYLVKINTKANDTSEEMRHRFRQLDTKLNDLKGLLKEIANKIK
In words: Luminescence readout assay for measuring intracellular calcium (aequorin), hTRPM8 antagonism. Conditions: CHO cell line expressing human TRPM8 and aequorin; activation by icilin, L-menthol or cold buffer (table does not say which). The format is cell-based. As for the experimental part:
Luminescence Readout Assay for Measuring Intracellular Calcium.
A stable Chinese hamster ovary cell line expressing human TRPM8 was generated using tetracycline inducible T-REx™ expression system from Invitrogen, Inc. (Carlsbad, Calif.). […] Twenty four hours before the assay, cells were seeded in 96-well plates and TRPM8 expression was induced with 0.5 μg/mL tetracycline. […] Potential antagonists were added 2.5 min prior to the addition of agonist, […], 100 µM L-menthol, or 1 min prior to the addition of cold buffer (<10° C.). The luminescence was measured by a CCD camera based FLASH-luminometer built by Amgen, Inc. A cooling device attached to FLASH luminometer was used for cold activation.
In the case of `O=C(NCCc1ccc2c(c1)OCO2)N[C@@H](c1ccc(C(F)(F)F)cc1)c1ncccc1C(F)(F)F` [Example 36, (S)-1-(2-(benzo[d][1,3]dioxol-5-yl)-ethyl)-3-((4-(trifluoro-methyl)-phenyl)(3-(trifluoro-methyl)-pyridin-2-yl)-methyl)urea (2,2,2-trifluoro-acetate)], the IC50 turned out to be 390 nM.

With `O=C(Nc1cccc(Br)c1)N[C@@H](c1ccc(C(F)(F)F)cc1)c1ncccc1C(F)(F)F` [Example 37, (S)-1-(3-bromophenyl)-3-((4-(trifluoro-methyl)-phenyl)(3-(trifluoro-methyl)-pyridin-2-yl)-methyl)urea (2,2,2-trifluoro-acetate)], the IC50 stood at 4080 nM. In the case of `CCOC(=O)CNC(=O)N[C@@H](c1ccc(C(F)(F)F)cc1)c1ncccc1C(F)(F)F` [Example 38, (S)-ethyl 2-(3-((4-(trifluoro-methyl)-phenyl)(3-(trifluoro-methyl)-pyridin-2-yl)-methyl)-ureido)acetate (2,2,2-trifluoro-acetate)], the IC50 came out at 1500 nM. For the compound `O=C(Nc1ccc2occc2c1)N[C@@H](c1ccc(C(F)(F)F)cc1)c1ncccc1C(F)(F)F` [Example 39, (S)-1-(benzofuran-5-yl)-3-((4-(trifluoro-methyl)-phenyl)(3-(trifluoro-methyl)-pyridin-2-yl)-methyl)urea (2,2,2-trifluoro-acetate)], the IC50 came out at 4090 nM. With `CC(C)(C)NC(=O)N[C@@H](c1ccc(C(F)(F)F)cc1)c1ncccc1Br` [Example 41, (S)-1-((3-bromopyridin-2-yl)(4-(trifluoro-methyl)-phenyl)-methyl)-3-(tert-butyl)-urea], the IC50 worked out at 122 nM.

`CC#Cc1cccnc1[C@@H](NC(=O)NC(C)(C)C)c1ccc(C(F)(F)F)cc1` [Example 42, (S)-1-(tert-butyl)-3-((3-(prop-1-yn-1-yl)pyridin-2-yl)(4-(trifluoro-methyl)-phenyl)-methyl)urea]: the IC50 was determined as 107 nM.

Turning to `C=CCc1cccnc1[C@@H](NC(=O)Nc1cccnc1)c1ccc(C(F)(F)F)cc1` [Example 43, (S)-1-((3-allylpyridin-2-yl)(4-(trifluoromethyl)phenyl)-methyl)-3-(pyridin-3-yl)urea], the IC50 was 22 nM. In the case of `CC(C)(C)NC(=O)N[C@@H](c1ccc(C(F)(F)F)cc1)c1ncccc1C(F)(F)F` [Example 45, (S)-1-(tert-butyl)-3-((4-(trifluoro-methyl)-phenyl)(3-(trifluoro-methyl)-pyridin-2-yl)-methyl)urea], the IC50 was 53 nM. The figure for `N#Cc1ccc(NC(=O)N[C@@H](c2ccc(C(F)(F)F)cc2)c2ncccc2C(F)(F)F)cc1` [Example 46, (S)-1-(4-cyanophenyl)-3-((4-(trifluoro-methyl)-phenyl)(3-(trifluoro-methyl)-pyridin-2-yl)-methyl)urea] is 3560 nM; for `O=C(Nc1ccc(F)cc1)N[C@@H](c1ccc(C(F)(F)F)cc1)c1ncccc1C(F)(F)F` [Example 47, (S)-1-(4-fluorophenyl)-3-((4-(trifluoro-methyl)-phenyl)(3-(trifluoro-methyl)-pyridin-2-yl)-methyl)urea] it is 98 nM. Consider `O=C(Nc1ccc(F)cc1F)N[C@@H](c1ccc(C(F)(F)F)cc1)c1ncccc1C(F)(F)F` [Example 48, (S)-1-(2,4-difluoro-phenyl)-3-((4-(trifluoro-methyl)-phenyl)(3-(trifluoro-methyl)-pyridin-2-yl)-methyl)urea], for which the IC50 is 2280 nM.

For the compound `O=C(Nc1cc(F)cc(F)c1)N[C@@H](c1ccc(C(F)(F)F)cc1)c1ncccc1C(F)(F)F` [Example 49, (S)-1-(3,5-difluoro-phenyl)-3-((4-(trifluoro-methyl)-phenyl)(3-(trifluoro-methyl)-pyridin-2-yul)-methyl)urea], the IC50 was 558 nM. The figure for `O=C(Nc1c(F)cccc1F)N[C@@H](c1ccc(C(F)(F)F)cc1)c1ncccc1C(F)(F)F` [Example 50, (S)-1-(2,6-difluoro-phenyl)-3-((4-(trifluoro-methyl)-phenyl)(3-(trifluoro-methyl)-pyridin-2-yl)-methyl)urea] is 209 nM. For the compound `COc1cccc(NC(=O)N[C@@H](c2ccc(C(F)(F)F)cc2)c2ncccc2C(F)(F)F)c1` [Example 52, (S)-1-(3-methoxy-phenyl)-3-((4-(trifluoro-methyl)-phenyl)(3-(trifluoro-methyl)-pyridin-2-yl)-methyl)urea (2,2,2-trifluoro-acetate)], the IC50 came out at 61 nM.

Turning to `CS(=O)(=O)c1cccc(NC(=O)N[C@@H](c2ccc(C(F)(F)F)cc2)c2ncccc2C(F)(F)F)c1` [Example 53, (S)-1-(3-(methylsulfonyl)phenyl)-3-((4-(trifluoro-methyl)-phenyl)(3-(trifluoro-methyl)-pyridin-2-yl)-methyl)urea], the IC50 was determined as 50 nM. Take `O=C(NC1CCCOC1)N[C@@H](c1ccc(C(F)(F)F)cc1)c1ncccc1C(F)(F)F` (stereo partly drawn) [Example 54, 1-(tetrahydro-2H-pyran-3-yl)-3-((S)-(4-(trifluoro-methyl)-phenyl)(3-(trifluoro-methyl)-pyridin-2-yl)-methyl)urea]: the IC50 was determined as 397 nM. The figure for `Cc1noc(C)c1NC(=O)N[C@@H](c1ccc(C(F)(F)F)cc1)c1ncccc1C(F)(F)F` [Example 55, (S)-1-(3,5-dimethylisoxazol-4-yl)-3-((4-(trifluoro-methyl)-phenyl)(3-(trifluoro-methyl)-pyridin-2-yl)-metyl)urea] is 50 nM. The figure for `O=C(NC1CCOC1)N[C@@H](c1ccc(C(F)(F)F)cc1)c1ncccc1C(F)(F)F` (stereo partly drawn) [Example 56, 1-(tetrahydrofuran-3-yl)-3-((S)-(4-(trifluoro-methyl)-phenyl)(3-(trifluoro-methyl)-pyridin-2-yl)-methyl)urea] is 676 nM; for `O=C(Nc1cncnc1)N[C@@H](c1ccc(C(F)(F)F)cc1)c1ncccc1C(F)(F)F` [Example 57, (S)-1-(pyrimidin-5-yl)-3-((4-(trifluoro-methyl)-phenyl)(3-(trifluoro-methyl)-pyridin-2-yl)-methyl)urea] it is 167 nM. Consider `O=C(Nc1ccc2ncccc2c1)N[C@@H](c1ccc(C(F)(F)F)cc1)c1ncccc1C(F)(F)F` [Example 58, (S)-1-(quinolin-6-yl)-3-((4-(trifluoro-methyl)-phenyl)(3-(trifluoro-methyl)-pyridin-2-yl)-methyl)urea], for which the IC50 came out at 562 nM.

Take `O=C(Nc1cnc2ccccc2c1)N[C@@H](c1ccc(C(F)(F)F)cc1)c1ncccc1C(F)(F)F` [Example 59, (S)-1-(quinolin-3-yl)-3-((4-(trifluoro-methyl)-phenyl)(3-(trifluoro-methyl)-pyridin-2-yl)-methyl)urea]: the IC50 is 640 nM. The figure for `O=C(Nc1ccnc2ccccc12)N[C@@H](c1ccc(C(F)(F)F)cc1)c1ncccc1C(F)(F)F` [Example 60, (S)-1-(quinolin-4-yl)-3-((4-(trifluoro-methyl)-phenyl)(3-(trifluoro-methyl)-pyridin-2-yl)-methyl)urea] is 182 nM.

Consider `CC(C)(C)Cc1cccnc1[C@@H](NC(=O)Nc1cccnc1)c1ccc(C(F)(F)F)cc1` [Example 62], for which the IC50 was determined as 1930 nM.

For the compound `O=C(Nc1c(Br)cc(F)cc1Br)N[C@@H](c1ccc(C(F)(F)F)cc1)c1ncccc1C(F)(F)F` [Example 63, (S)-1-(2,6-dibromo-4-fluorophenyl)-3-((4-(trifluoro-methyl)-phenyl)(3-(trifluoro-methyl)-pyridin-2-yl)-methyl)urea (2,2,2-trifluoro-acetate)], the IC50 was determined as 866 nM.

For the compound `O=C(NCC1CCS(=O)(=O)C1)N[C@@H](c1ccc(C(F)(F)F)cc1)c1ncccc1C(F)(F)F` (stereo partly drawn) [Example 64, 1-((3- Sulfonylcyclopentyl)-methyl)-3-((S)-(4-(trifluoro-methyl)-phenyl)(3-(trifluoro-methyl)-pyridin-2-yl)-methyl)urea (2,2,2-trifluoro-acetate)], the IC50 was determined as 5650 nM.

With `CC(C)[C@H](C)NC(=O)N[C@@H](c1ccc(C(F)(F)F)cc1)c1ncccc1C(F)(F)F` [Example 65, 1-((S)-3-methylbutan-2-yl)-3-((S)-(4-(trifluoro-methyl)-phenyl)(3-(trifluoro-methyl)-pyridin-2-yl)-methyl)urea (2,2,2-trifluoro-acetate)], the 50% inhibitory concentration (IC50) was determined as 141 nM.

For the compound `CCOC(=O)CCNC(=O)N[C@@H](c1ccc(C(F)(F)F)cc1)c1ncccc1C(F)(F)F` [Example 66, (S)-ethyl 3-(3-((4-(trifluoro-methyl)-phenyl)(3-(trifluoro-methyl)-pyridin-2-yl)-methyl)-ureido)-propanoate (2,2,2-trifluoro-acetate)], the IC50 amounted to 905 nM. Take `O=C(NC(=O)c1ccccc1)N[C@@H](c1ccc(C(F)(F)F)cc1)c1ncccc1C(F)(F)F` [Example 67, (S)-N-((4-(trifluoro-methyl)-phenyl)(3-(trifluoro-methyl)-pyridin-2-yl)-methylcarbamoyl) benzamide (2,2,2-trifluoro-acetate)]: the IC50 is 352 nM. In the case of `CCOC(=O)CCCNC(=O)N[C@@H](c1ccc(C(F)(F)F)cc1)c1ncccc1C(F)(F)F` [Example 68, (S)-ethyl 4-(3-((4-(trifluoro-methyl)-phenyl)(3-(trifluoro-methyl)-pyridin-2-yl)-methyl)-ureido)-butanoate (2,2,2-trifluoro-acetate)] it was 881 nM. With `Cc1noc(-c2ccccc2)c1NC(=O)N[C@@H](c1ccc(C(F)(F)F)cc1)c1ncccc1C(F)(F)F` [Example 69, (S)-1-(3-methyl-5-phenylisoxazol-4-yl)-3-((4-(trifluoro-methyl)-phenyl)(3-(trifluoro-methyl)-pyridin-2-yl)-methyl)urea (2,2,2-trifluoro-acetate)], the IC50 came out at 777 nM.
